Measurements taken from the supplement of paper PMC4862054.
Several values for one entry are separate records, joined by “and”; a condition that tells them apart may be missing. Equal values may be shown once.

How the values were obtained:
Details in all cases: incubation time: 72 h
[1] = test system: HCC1937; assay: drug sensitivity score (DSS), CellTiter-Blue viability (DSS (AUC-based score)); higher = stronger viability inhibition; extreme values may be limits of the assay
Method: (§1)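 DSRT with the CellTiter-Blue (resazurin reduction) viability readout, fluorescence 560/590 nm, 72 h incubation. Plates were normalised to DMSO and benzethonium chloride controls. DSS is computed from the area under the fitted dose-response curve (5 or 9 concentrations).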

[2] = test system: CAL-120; assay: as above
Method: as §1

[3] = test system: SK-BR-3; assay: drug sensitivity score (DSS), CellTiter-Glo (DSS (AUC-based score)); higher = stronger drug effect (viability inhibition or cytotoxicity); extreme values may be limits of the assay
Summary of the method: (§2)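 Using 20 µl of cell suspension per well, breast cancer cell lines were seeded into 384-well plates pre-loaded with compound at 5 concentrations in 10-fold steps across a compound-specific 10,000-fold range. Incubation lasted 72 h, after which CellTox Green fluorescence at 485/520 nm and then CellTiter-Glo luminescence, following 10 min at room temperature, were recorded. Each plate was normalised to 0.1 % DMSO and a positive kill control before the drug sensitivity score was derived from the area under the fitted dose-response curve.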

[4] = test system: HCC1143; assay: as above
Summary of the method: as §2

[5] = test system: MDA-MB-453; assay: as above
Summary of the method: as §2

[6] = test system: HCC1937; assay: as above
Summary of the method: as §2

[7] = test system: MDA-MB-468; assay: as above
Summary of the method: as §2

[8] = test system: BT-549; assay: as above
Summary of the method: as §2

[9] = test system: MDA-MB-231; assay: as above
Summary of the method: as §2

[10] = test system: CAL-85-1; assay: as above
Summary of the method: as §2

[11] = test system: MCF-10A; assay: as above
Summary of the method: as §2

[12] = test system: BT-474; assay: as above
Summary of the method: as §2

[13] = test system: CAL-148; assay: as above
Summary of the method: as §2

[14] = test system: HDQ-P1; assay: as above
Summary of the method: as §2

[15] = test system: CAL-51; assay: as above
Summary of the method: as §2

[16] = test system: Hs578T; assay: as above
Summary of the method: as §2

[17] = test system: MFM-223; assay: as above
Summary of the method: as §2

[18] = test system: HCC1599; assay: as above
Summary of the method: as §2

[19] = test system: DU-4475; assay: as above
Summary of the method: as §2

[20] = test system: CAL-120; assay: as above
Summary of the method: as §2

[21] = test system: MDA-MB-436; assay: as above
Summary of the method: as §2

Row | Structure (SMILES) | drug sensitivity score [1] | drug sensitivity score [2] | drug sensitivity score [3] | drug sensitivity score [4] | drug sensitivity score [5] | drug sensitivity score [6] | drug sensitivity score [7] | drug sensitivity score [8] | drug sensitivity score [9] | drug sensitivity score [10] | drug sensitivity score [11] | drug sensitivity score [12] | drug sensitivity score [13] | drug sensitivity score [14] | drug sensitivity score [15] | drug sensitivity score [16] | drug sensitivity score [17] | drug sensitivity score [18] | drug sensitivity score [19] | drug sensitivity score [20] | drug sensitivity score [21]
1 | COc1ccc(-c2cc3c(C)nc(N)nc3n([C@H]3CC[C@H](OCCO)CC3)c2=O)cn1 | 18.2 | 17.7 | 22.1 | 17.2 | 21.9 | 15.1 | 18.8 | 18.7 | 18.4 | 18.5 | 18.3 | 16.4 | 17.1 | 18.7 | 22.6 | 18 | 17 | 9.17 | 12.4 | 17.1 | 14.4
2 | Cc1cccc(-c2nn3c(c2-c2ccnc4ccc(C(N)=O)cc24)CCC3)n1 | 0 | 0 | – | – | – | – | – | – | – | – | – | – | – | – | – | – | – | – | – | – | –
3 | Cn1cc(CNCC2CCN(c3ncc(C(=O)NO)cn3)CC2)c2ccccc21 | 16.5 | 20.2 | – | – | – | – | – | – | – | – | – | – | – | – | – | – | – | – | – | – | –
4 | O=C(NC[C@H](O)CO)c1ccncc1Nc1ccc(I)cc1F | 0 | 7.78 | – | – | – | – | – | – | – | – | – | – | – | – | – | – | – | – | – | – | –
5 | Nc1nc(=O)c2c([nH]1)NCC(CNc1ccc(C(=O)N[C@@H](CCC(=O)O)C(=O)O)cc1)N2C=O (mixture of isomers) [Folinic acid] | 0 | 0 | – | – | – | – | – | – | – | – | – | – | – | – | – | – | – | – | – | – | –
6 | CC/C(=C(\c1ccc(O)cc1)c1ccc(OCCN(C)C)cc1)c1ccccc1 [4-hydroxytamoxifen] | – | – | 1.4 | 0 | 1.86 | 3.45 | 4.87 | 2.89 | 2.63 | 3.01 | 0 | 0 | 0 | 0 | 0 | 0 | 1.9 | 0 | 0 | 1.84 | 1.6
7 | CCCCC/C=C/C=C1/C(=O)C=C[C@@H]1C/C=C\CCCC(=O)O [15D-PGJ2] | – | – | 0 | 0 | 0 | 0 | 0 | 0 | 0 | 0 | 0 | 0 | 0 | 0 | 0 | 0 | 0 | 0 | 0 | 0 | 0
8 | O=C(Nc1c[nH]nc1-c1nc2ccc(CN3CCOCC3)cc2[nH]1)NC1CC1 [AT9283] | 15.4 | 18.6 | 1.96 | 2.84 | 0 | 0 | 13.4 | 4.94 | 6.11 | 0 | 5.49 | 5.15 | 0 | 2.87 | 7.83 | 4.11 | 1.08 | 0 | 1.31 | 5.15 | 0
9 | COc1cc(CCc2cc(NC(=O)c3ccc(N4CC(C)NC(C)C4)cc3)n[nH]2)cc(OC)c1 (centres undefined) [AZD4547] | 0 | 0 | 0 | 0 | 0.805 | 0 | 0 | 0.487 | 0 | 0 | 1.73 | 0 | 0 | 0 | 0 | 0.967 | 12.2 | 0 | 0 | 3.61 | 0
10 | CC(=O)OC[C@H]1O[C@@H]([S-])[C@H](OC(C)=O)[C@@H](OC(C)=O)[C@@H]1OC(C)=O.CCP(CC)CC.[Au+] [Auranofin] | – | – | 1.76 | 5.15 | 6.93 | 7.45 | 14.9 | 9.2 | 4.38 | 6.05 | 1.42 | 1.22 | 1.24 | 3.9 | 11.7 | 3.87 | 2.71 | 1.36 | 1.74 | 0.998 | 5.88
11 | CCC/C=C/C=C/C(=O)O[C@H]1/C(=C/C(=O)OC)C[C@H]2C[C@H]([C@@H](C)O)OC(=O)C[C@H](O)C[C@@H]3C[C@H](OC(C)=O)C(C)(C)[C@](O)(C[C@@H]4C/C(=C/C(=O)OC)C[C@H](/C=C/C(C)(C)[C@]1(O)O2)O4)O3 [Bryostatin 1] | 0 | 0 | 10.8 | 0 | 0 | 0 | 0 | 0.294 | 0 | 0 | 0 | 1.75 | 0 | 1.62 | 6.93 | 4.68 | 0 | 0 | 0 | 0 | 0
12 | CO[C@@H](C(=O)N1Cc2[nH]nc(NC(=O)c3ccc(N4CCN(C)CC4)cc3)c2C1)c1ccccc1 [Danusertib] | 10.8 | 10.5 | 0 | 5.41 | 0 | 0 | 18.3 | 10.7 | 5.32 | 0 | 12 | 5.14 | 3.57 | 3.68 | 9.2 | 3.96 | 14.3 | 0 | 5.98 | 6.46 | 4.68
13 | Cc1nc(Nc2ncc(C(=O)Nc3c(C)cccc3Cl)s2)cc(N2CCN(CCO)CC2)n1 [Dasatinib] | 0 | 11.2 and 13.7 | 0 | 6.57 | 0 | 6.2 | 4.01 | 7.26 | 14.2 | 8.17 | 15.9 | 11.4 | 0 | 14.9 | 11.8 | 8.38 | 0 | 0 | 0 | 8.55 | 0.821
14 | O=S(=O)(c1cccc2cnccc12)N1CCCNCC1 [Fasudil] | 0 | 0 | 0 | 0 | 1.2 | 0 | 0 | 1.25 | 0 | 0 | 0 | 0 | 0 | 0 | 0 | 0.0914 | 0 | 0 | 0.0897 | 0 | 0
15 | CS(=O)(=O)N1CCN(Cc2cc3nc(-c4cccc5[nH]ncc45)nc(N4CCOCC4)c3s2)CC1 [GDC-0941] | 8.92 | 10.5 | – | – | – | – | – | – | – | – | – | – | – | – | – | – | – | – | – | – | –
16 | Cc1cccc(-c2nn3c(c2-c2ccnc4ccc(C(N)=O)cc24)CCC3)n1 [Galunisertib] | – | – | 0 | 0 | 0 | 0 | 0 | 0 | 0 | 0 | 0 | 0 | 0 | 0 | 0.026 | 0 | 0 | 0 | 0 | 0 | 0
17 | CS(=O)(=O)N1CCN(Cc2cc3nc(-c4cccc5[nH]ncc45)nc(N4CCOCC4)c3s2)CC1 [Pictilisib] | – | – | 14.2 | 7.14 | 13.1 | 5.69 | 6.39 | 9.15 | 6.01 | 8.59 | 13.3 | 6.27 | 8.61 | 11.9 | 10.1 | 7.69 | 7.5 | 0 | 1.25 | 7.47 | 5.3
18 | O=C(NC[C@H](O)CO)c1ccncc1Nc1ccc(I)cc1F [Pimasertib] | – | – | 2.74 | 0 | 0 | 2.69 | 0 | 0.686 | 6.34 | 8.66 | 21.9 | 7.07 | 3.19 | 13 | 5.03 | 2.79 | 1.68 | 0 | 32.3 | 5.16 | 0.481
19 | Cn1cc(CNCC2CCN(c3ncc(C(=O)NO)cn3)CC2)c2ccccc21 [Quisinostat] | – | – | 19.3 | 16.7 | 23.3 | 8.41 | 13.6 | 11.9 | 13.2 | 16.4 | 11.5 | 13.7 | 18.3 | 10.3 | 12.1 | 13.7 | 9.28 | 12.5 | 16.2 | 12.3 | 9.76
20 | CC(C)N(CCCNC(=O)Nc1ccc(C(C)(C)C)cc1)C[C@H]1O[C@@H](n2cc(Br)c3c(N)ncnc32)[C@H](O)[C@@H]1O [SGC0946] | – | – | 0 | 0 | 0 | 0 | 2.46 | 0 | 0 | 0 | 0 | 0 | 0 | 0 | 0 | 0 | 0 | 0 | 0 | 0 | 0
